pIC50: −log10 of the molar value.
Legend:
[1] = target: T1, PAR2 (HT-29 cells, SLIGKV activation) (Homo sapiens, UniProt P55085); assay: Ca FLIPR TETRA assay, ANTAGONIST mode, stimulation with 8 μM SLIGKV; assay type: cell-based; settings: HT-29 cells
T1 construct: host or cells: HT-29 cells
T1 sequence (P55085 26-397): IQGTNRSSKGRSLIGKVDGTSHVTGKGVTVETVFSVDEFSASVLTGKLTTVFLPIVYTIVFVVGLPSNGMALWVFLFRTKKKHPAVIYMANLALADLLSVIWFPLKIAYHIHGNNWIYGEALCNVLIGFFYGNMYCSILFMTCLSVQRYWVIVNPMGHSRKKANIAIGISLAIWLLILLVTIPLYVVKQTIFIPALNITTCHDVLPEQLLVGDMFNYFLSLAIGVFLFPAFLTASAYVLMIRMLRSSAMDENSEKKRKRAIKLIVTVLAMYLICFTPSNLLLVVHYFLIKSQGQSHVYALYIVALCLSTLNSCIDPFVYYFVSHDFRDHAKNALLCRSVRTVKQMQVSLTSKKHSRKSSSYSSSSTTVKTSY
Procedure, shortened: (§1)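 Antagonist-mode assay: dye-loaded HT-29 cells, compound 30 min at r.t., then stimulated with final 8 μM SLIGKV, 3.1 U/mL trypsin, 1 U/mL thrombin or 0.6 μM UTP; calcium fluorescence read.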

[2] = target: T2, PAR2 (HT-29 cells, trypsin activation) (Homo sapiens, UniProt P55085); assay: Ca FLIPR TETRA assay, ANTAGONIST mode, stimulation with 3.1 U/mL trypsin; assay type: cell-based; settings: HT-29 cells
T2 construct: host or cells: HT-29 cells
T2 sequence (P55085 26-397): T1 sequence (P55085 26-397)
Procedure, shortened: as §1

[3] = test system: Thrombin-stimulated Ca2+ response in HT-29 cells; assay: Ca FLIPR TETRA assay, ANTAGONIST mode, stimulation with 1 U/mL Thrombin; assay type: cell-based, human; settings: Homo sapiens, HT-29 cells
Procedure, shortened: as §1

[4] = test system: UTP-stimulated Ca2+ response in HT-29 cells; assay: Ca FLIPR TETRA assay, ANTAGONIST mode, stimulation with 0.6 μM UTP; assay type: cell-based, human; settings: Homo sapiens, HT-29 cells
Procedure, shortened: as §1

[5] = antagonist mode, stimulation with 8 μM SLIGKV
[6] = antagonist mode, stimulation with 3.1 U/mL trypsin
[7] = antagonist mode, stimulation with 1 U/mL Thrombin
[8] = antagonist mode, stimulation with 0.6 μM UTP
[9] = stimulation with 3.1 U/mL trypsin
[10] = stimulation with 1 U/mL Thrombin

Row | SMILES | pIC50 [1, 5] | pIC50 [2, 6] | pIC50 [3, 7] | pIC50 [4, 8] | further results
1 | Cc1ccc(-c2cc(C(C)C)c3nc(C(=O)N4CCNC(=O)C4(C)C)cn3n2)cc1Cl [Compound I-508] | 8.33 | 8.39 | < 6.00 | < 6.00 | 
2 | CC(=O)N1CCN(C(=O)c2cn3nc(-c4ccc(F)cc4)cc(C(C)C)c3n2)C(C)(C)C1 [Compound I-512] | 7.63 | 7.28 | < 6.00 | < 6.00 | 
3 | Cc1n[nH]cc1C(=O)N1CCN(C(=O)c2cn3nc(-c4ccc(F)cc4)cc(C(C)C)c3n2)C(C)(C)C1 [Compound I-304] | 7.39 | 7.27 | < 6.00 | < 6.00 | 
4 | CC(C)(C)c1cc(-c2ccc(Cl)cc2)nn2cc(C(=O)N3CCN(C(=O)[C@H]4C[C@H](C(=O)O)C4)CC3(C)C)nc12 [Compound I-570] |  |  |  |  | pIC50 ([1]; antagonist mode, 8 μM SLIGKV): 8.80; pIC50 ([2]; antagonist mode, 3.1 U/mL trypsin): 8.66; pIC50 ([3]; antagonist mode, 1 U/mL Thrombin): < 6.00; pIC50 ([4]; antagonist mode, 0.6 μM UTP): < 6.00
5 | CC(C)c1cc(-c2ccc(C(F)(F)F)cc2)nn2cc(C(=O)N3CCN(C(=O)C(C)(C)O)CC3(C)C)nc12 [Compound I-215] | 7.92 | 7.74 | < 6.00 | < 6.00 | 
6 | CCc1cc(-c2ccc(F)cc2)nn2cc(C(=O)N3CCN(C(=O)[C@H](O)CC4CC4)[C@@H](C)C3)nc12 [Compound I-170] |  |  |  |  | pIC50 ([1]; stimulation with 8 μM SLIGKV): 7.85; pIC50 [2, 9]: 7.42; pIC50 [3, 10]: 4.48; pIC50 ([4]; stimulation with 0.6 μM UTP): 4.52
7 | Cc1cc(-c2cc(C(C)C)c3nc(C(=O)N4CCN(C)C(=O)C4(C)C)cn3n2)ccc1F [Compound I-440] | 8.09 | 7.85 | < 6.00 | < 6.00 | 
8 | CC(C)(O)C(=O)N1CCN(C(=O)c2cn3nc(-c4ccc(F)cc4)cc(C(C)(C)C)c3n2)C(C)(C)C1 [Compound I-198] | 8.36 | 8.25 | < 6.00 | < 6.00 | 
9 | CC(C)c1cc(-c2ccc(F)c(F)c2)nn2cc(C(=O)N3CCN(C(=O)C(C)(C)O)CC3(C)C)nc12 [Compound I-221] | 7.63 | 7.40 | < 6.00 | < 6.00 | 
10 | CC(C)c1cc(-c2ccc(F)cc2)nn2cc(C(=O)N3CCN(C(=O)C4(N)CCC4)[C@@H](C)C3)nc12 [Compound I-155] |  |  |  |  | pIC50 ([1]; stimulation with 8 μM SLIGKV): 6.10; pIC50 [2, 9]: 5.46; pIC50 [3, 10]: 4.57; pIC50 ([4]; stimulation with 0.6 μM UTP): 4.60
11 | CC(C)c1cc(-c2ccc(F)cc2)nn2cc(C(=O)N3CCOC(=O)C3(C)C)nc12 [Compound I-511] | 7.64 | 7.06 | < 6.00 | < 6.00 | 
12 | Cc1cc(-c2ccc(F)cc2)nn2cc(C(=O)N3CCCCCC3)nc12 [Compound I-6, Azepan-1-yl-[6-(4-fluorophenyl)-8-methyl-imidazo[1,2-b]pyridazin-2-yl]methanone] |  |  |  |  | pIC50 ([1]; stimulation with 8 μM SLIGKV): 5.89; pIC50 [2, 9]: 5.60; pIC50 [3, 10]: 5.00; pIC50 ([4]; stimulation with 0.6 μM UTP): 4.96
13 | CC(C)(C)OC(=O)N1CCCN(C(=O)c2cn3nc(-c4ccc(F)cc4)cc(C(F)(F)F)c3n2)CC1 [Compound I-84] |  |  |  |  | pIC50 ([1]; stimulation with 8 μM SLIGKV): 6.10; pIC50 [2, 9]: 5.74; pIC50 [3, 10]: 5.19; pIC50 ([4]; stimulation with 0.6 μM UTP): 5.29
14 | CCOC(=O)[C@@H]1CCCN(C(=O)c2cn3nc(-c4ccc(F)cc4)cc(C(F)(F)F)c3n2)[C@@H]1C [Compound I-75] |  |  |  |  | pIC50 ([1]; stimulation with 8 μM SLIGKV): 5.96; pIC50 [2, 9]: 5.92; pIC50 [3, 10]: 5.80; pIC50 ([4]; stimulation with 0.6 μM UTP): 5.66
15 | Cc1nc(N2CCN(C(=O)c3cn4nc(-c5ccc(F)c(C)c5)cc(C(C)C)c4n3)C(C)(C)C2=O)c[nH]1 [Compound I-389] | 7.70 | 7.60 | < 6.00 | < 6.00 | 
16 | Cc1cc(-c2cc(C(C)C)c3nc(C(=O)N4CCN(C(=O)C(C)(C)O)CC4(C)C)cn3n2)ccc1F [Compound I-223] | 7.79 | 7.57 | < 6.00 | < 6.00 | 
17 | CCC1(C)C(=O)NCCN1C(=O)c1cn2nc(-c3ccc(F)cc3)cc(C(C)C)c2n1 (stereo not shown) [Compound I-179] |  |  |  |  | pIC50 ([1]; stimulation with 8 μM SLIGKV): 8.52; pIC50 [2, 9]: 7.96; pIC50 [3, 10]: 5.16; pIC50 ([4]; stimulation with 0.6 μM UTP): 5.07
18 | C[C@@H]1CN(c2cc(-c3ccc(F)cc3)nn3cc(C(=O)N4CCN(C(=O)C(C)(C)O)CC4(C)C)nc23)C[C@H](C)O1 [Compound I-185] | 6.93 | 6.80 | < 5.30 | < 5.30 | 
19 | CC(C)(C)c1cc(-c2ccc(F)cc2)nn2cc(C(=O)N3CCN(C(=O)c4ccn[nH]c4=O)CC3(C)C)nc12 [Compound I-356] | 7.55 | 7.82 | < 6.00 | < 6.00 | 
20 | CC(C)c1cc(C2CCCCC2)nn2cc(C(=O)N3CCN(C(=O)C4(O)CCC4)CC3(C)C)nc12 [Compound I-41, (6-Cyclohexyl-8-isopropyl-imidazo[1,2-b]pyridazin-2-yl)-[4-(1-hydroxycyclobutanecarbonyl)-2,2-dimethyl-piperazin-1-yl]methanone] |  |  |  |  | pIC50 ([1]; stimulation with 8 μM SLIGKV): 7.21; pIC50 [2, 9]: 6.55; pIC50 [3, 10]: 4.70; pIC50 ([4]; stimulation with 0.6 μM UTP): 4.68

Second part, led by results:

Row | pIC50 [1, 5] | pIC50 [2, 6] | pIC50 [3, 7] | pIC50 [4, 8] | SMILES | further results
21 | 8.49 | 8.42 | < 6.00 | < 6.00 | Cc1ccc(-c2cc(C(C)C)c3nc(C(=O)N4CCN(C(=O)C5CC(C)(O)C5)CC4(C)C)cn3n2)cc1 (stereo not shown) [Compound I-333] | 
22 | 9.70 | 9.52 | < 6.00 | < 6.00 | Cc1ccc(-c2cc(C(C)C)c3nc(C(=O)N4CCN(C(=O)[C@H]5C[C@](O)(C(F)(F)F)C5)CC4(C)C)cn3n2)cc1 [Compound I-254] | 
23 | 9.15 | 8.92 | < 6.00 | < 6.00 | Cc1ncc(C(=O)N2CCN(C(=O)c3cn4nc(-c5ccc(Cl)c(F)c5)cc(C(C)(C)C)c4n3)C(C)(C)C2)[nH]1 [Compound I-453] | 
24 | 8.72 | 8.54 | < 6.00 | < 6.00 | Cc1nc(C(=O)N2CCN(C(=O)c3cn4nc(-c5ccc(F)c(C)c5)cc(C(C)(C)C)c4n3)C(C)(C)C2)c[nH]1 [Compound I-383] | 
25 | 9.10 | 8.80 | 6.04 | < 6.00 | CC(C)(C)c1cc(-c2ccc(F)cc2)nn2cc(C(=O)N3CCN(c4cc[nH]n4)C(=O)C3(C)C)nc12 [Compound I-471] | 
26 | 8.57 | 8.57 | 5.57 | 5.20 | CC(C)c1cc(-c2ccc(F)c(Cl)c2)nn2cc(C(=O)N3CCN(C(=O)[C@H]4C[C@@](C)(O)C4)CC3(C)C)nc12 [Compound I-482] | 
27 | 10.00 | 9.52 | < 6.00 | < 6.00 | CC(C)c1cc(-c2ccc(F)cc2)nn2cc(C(=O)N3CCN(C(=O)C4CC(O)(C(F)(F)F)C4)CC3(C)C)nc12 (stereo not shown) [Compound I-240] | 
28 | 9.00 | 8.96 | < 6.00 | < 6.00 | CC(C)(C)c1cc(-c2ccc(F)cc2)nn2cc(C(=O)N3CCN(c4cn[nH]n4)C(=O)C3(C)C)nc12 [Compound I-359] | 
29 | 8.39 | 8.07 | < 6.00 | < 6.00 | CC(C)c1cc(-c2ccc(F)c(F)c2)nn2cc(C(=O)N3CCNC(=O)C3(C)C)nc12 [Compound I-243] | 
30 | 8.89 | 8.89 | < 6.00 | < 6.00 | CC(C)c1cc(-c2ccc(C(F)(F)F)c(F)c2)nn2cc(C(=O)N3CCN(C(=O)c4ccn[nH]4)CC3(C)C)nc12 [Compound I-277] | 
31 | 9.15 | 8.92 | < 6.00 | < 6.00 | CC(C)c1cc(-c2ccc(C(F)(F)F)c(F)c2)nn2cc(C(=O)N3CCNC(=O)C3(C)C)nc12 [Compound I-273] | 
